Reference: ChEMBL document CHEMBL3046636, “Synthesis and anti-juvenile hormone activity of ethyl 4-(2-aryloxyhexyloxy)benzoates” (2006)
Calls of active or inactive are those of the source. The rule behind the calls is not given here.

Key:
Bombyx mori [1] = assay: Induction of precocious metamorphosis in newly molted fourth-instar larvae of Bombyx mori assessed as precocious metamorphosis measured after topical treatment; type: functional, organism-based
Bombyx mori [2] = assay: Induction of precocious metamorphosis in 24 hr old third-instar larvae of Bombyx mori assessed as precocious metamorphosis at 1 ug/larva topically by antijuvenile hormone activity assay; type: functional
Bombyx mori [3] = assay: Induction of precocious metamorphosis in 24 hr old third-instar larvae of Bombyx mori assessed as precocious metamorphosis at 40 ug/larva topically by antijuvenile hormone activity assay; type: functional
Bombyx mori [4] = assay: Induction of precocious metamorphosis in 24 hr old third-instar larvae of Bombyx mori assessed as precocious metamorphosis at 10 ug/larva topically by antijuvenile hormone activity assay; type: functional
Bombyx mori [5] = assay: Induction of precocious metamorphosis in 24 hr old third-instar larvae of Bombyx mori assessed as precocious metamorphosis at 50 ppm dietary administration by antijuvenile hormone activity assay; type: functional
Bombyx mori [6] = assay: Induction of precocious metamorphosis in 24 hr old third-instar larvae of Bombyx mori assessed as precocious metamorphosis at 200 ppm dietary administration by antijuvenile hormone activity assay; type: functional

SMILES: CCCCC(COc1ccc(C(=O)OCC)cc1)Oc1ccc(C)nc1 (stereo not given)
- Activity (Bombyx mori [1]): inactive
- Activity (Bombyx mori [2]): 20%
- Activity (Bombyx mori [3]): 75%
- Activity (Bombyx mori [4]): 20%

SMILES: CCCCC(COc1ccc(C(=O)OCC)cc1)Oc1cccnc1 (stereo not given)
- Activity (Bombyx mori [1]): inactive
- Activity (Bombyx mori [2]): 10%
- Activity (Bombyx mori [3]): 57%
- Activity (Bombyx mori [4]): 47%

SMILES: CCCCC(COc1ccc(C(=O)OCC)cc1)Oc1cccc(C)c1 (stereo not given)
- Activity (Bombyx mori [1]): inactive
- Activity (Bombyx mori [2]): 0%
- Activity (Bombyx mori [3]): 55%
- Activity (Bombyx mori [4]): 5%

SMILES: CCCCC(COc1ccc(C(=O)OCC)cc1)Oc1ccccc1 (stereo not given)
- Activity (Bombyx mori [1]): inactive
- Activity (Bombyx mori [2]): 32%
- Activity (Bombyx mori [3]): 70%
- Activity (Bombyx mori [4]): 66%
- Activity (Bombyx mori [5]): 25%
- Activity (Bombyx mori [6]): 75%

SMILES: CCCCC(COc1ccc(C(=O)OCC)cc1)Oc1ccccc1C (stereo not given)
- Activity (Bombyx mori [1]): inactive
- Activity (Bombyx mori [2]): 0%
- Activity (Bombyx mori [4]): 10%

SMILES: CCCCC(COc1ccc(C(=O)OCC)cc1)Oc1ccc(C)cc1 (stereo not given)
- Activity (Bombyx mori [1]): inactive
- Activity (Bombyx mori [2]): 5%
- Activity (Bombyx mori [3]): 58%
- Activity (Bombyx mori [4]): 45%

SMILES: CCCCC(COc1ccc(C(=O)O)cc1)Oc1ccccc1 (stereo not given)
- Activity (Bombyx mori [5]): 0%
- Activity (Bombyx mori [6]): 0%

SMILES: CCCCC(COc1ccc(C(=O)OCC)cc1)Oc1cccc(Cl)c1 (stereo not given)
- Activity (Bombyx mori [1]): inactive
- Activity (Bombyx mori [2]): 25%
- Activity (Bombyx mori [3]): 75%
- Activity (Bombyx mori [4]): 45%

SMILES: CCCCC(COc1ccc(C(=O)OCC)cc1)Oc1ccc(Cl)cc1 (stereo not given)
- Activity (Bombyx mori [1]): inactive
- Activity (Bombyx mori [2]): 0%
- Activity (Bombyx mori [4]): 30%

SMILES: CCCCC(COc1ccc(C(=O)OCC)cc1)Oc1ccccc1Cl (stereo not given)
- Activity (Bombyx mori [1]): inactive
- Activity (Bombyx mori [2]): 0%
- Activity (Bombyx mori [4]): 0%

SMILES: CCCCC(COc1ccc(C(=O)OCC)cc1)Oc1ccncc1 (stereo not given)
- Activity (Bombyx mori [1]): inactive
- Activity (Bombyx mori [2]): 0%
- Activity (Bombyx mori [4]): 0%
